# Results reported in patent US20160058881A1, “PRODRUGS WITH PROLONGED ACTION” (INDIANA UNIVERSITY RESEARCH AND TECHNOLOGY CORPORATION, priority 2013, published 2016).
# Read-outs that look alike come from different tables or passages of the source. Starred links: 1 amine or outer side, 2 acyl side, 3 side chain; linkers in the order of their positions; H or OH if unused. Non-standard residues stand in square brackets, D forms with d. Residues, ends and D or L forms follow the SMILES beside them. Groups on a side chain read outwards from the residue. No end group written: not given here. *: point of attachment. Docosanoyl = CCCCCCCCCCCCCCCCCCCCCC(=O)*; Phe(4-NH2) = Nc1ccc(C[C@H](N)C(=O)O)cc1; Arachidoyl = CCCCCCCCCCCCCCCCCCCC(=O)*; d(εLys) = N[C@H](CCCCN[*:1])C(=O)[*:2]; Aib = CC(C)(N)C(=O)O; Sar = CNCC(=O)O
# How the values were obtained:
# [1] = type: physicochemical; conditions: buffer
# Procedure: Preliminary analyses were performed with these crude peptides for an approximation of their relative conversion rates in Phosphate Buffered Saline (PBS) buffer (pH, 7.2) using high performance liquid chromatography (HPLC) and MALDI analysis. The crude peptide samples were dissolved in the PBS buffer at a concentration of 1 mg/mL. […] Aliquots of 100 μL were drawn out at various time intervals, cooled to room temperature and analyzed by HPLC. […] The peptides described above were incubated in PBS buffer or serum at 37° C. for up to 8 days. Samples were collected at different time points for PBS and plasma and half-life was determined. […] The peptides described above were incubated in PBS buffer or serum at 37° C. for up to 8 days. Samples were collected at different time points for PBS and plasma and half-life was determined. […] The shorter half-life seen when the acylated dipeptide was linked to […] might be due to a conformational change that facilitates cleavage when bound to plasma or alternatively to reduced detection of the acylated form when bound to plasma.
# [2] = target: T1, GLP-1 receptor (Homo sapiens, UniProt P43220); assay: GLP-receptor luciferase bioassay of samples incubated in 20% human plasma (restored activity); type: cell-based; conditions: 37° C.
# Procedure: To explore the possible formation of DKP and simultaneous regeneration of the parent drug, the above-mentioned peptides were incubated in 20% human plasma at 37° C. for approximately 5 days. Samples were collected at different time points (0, 1, 2, and 5 days).
# Target sequence in this assay (P43220 24-463): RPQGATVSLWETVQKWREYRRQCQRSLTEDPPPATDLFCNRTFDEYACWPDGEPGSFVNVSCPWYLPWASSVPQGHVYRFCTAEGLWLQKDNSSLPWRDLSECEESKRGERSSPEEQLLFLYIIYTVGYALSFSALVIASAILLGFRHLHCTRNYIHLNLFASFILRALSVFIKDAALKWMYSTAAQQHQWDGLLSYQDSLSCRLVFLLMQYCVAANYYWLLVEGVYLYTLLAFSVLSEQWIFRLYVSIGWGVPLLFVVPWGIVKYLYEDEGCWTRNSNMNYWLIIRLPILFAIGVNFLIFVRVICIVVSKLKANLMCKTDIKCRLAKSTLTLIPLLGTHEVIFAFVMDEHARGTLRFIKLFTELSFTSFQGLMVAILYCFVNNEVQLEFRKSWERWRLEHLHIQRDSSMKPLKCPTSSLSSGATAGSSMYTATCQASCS
# [3] = type: in vitro ADME
# Procedure: The peptides described above were incubated in PBS buffer or serum at 37° C. for up to 8 days. Samples were collected at different time points for PBS and plasma and half-life was determined. […] The peptides described above were incubated in PBS buffer or serum at 37° C. for up to 8 days. Samples were collected at different time points for PBS and plasma and half-life was determined. […] The shorter half-life seen when the acylated dipeptide was linked to […] might be due to a conformational change that facilitates cleavage when bound to plasma or alternatively to reduced detection of the acylated form when bound to plasma.
# [4] = target: glucagon receptor (UniProt P47871); assay: cell-based or functional assay
# [5] = target: T1, GLP-1 receptor; assay: cell-based or functional assay
# Target sequence in this assay (P43220 24-463 limits assumed): as the sequence (P43220 24-463) above
# [6] = target: glucagon receptor (UniProt P47871); assay: cell-based or functional assay; remark: listed apart in the source
# [7] = target: GLP-1 receptor (UniProt P43220 24-463, limits assumed); assay: cell-based or functional assay
# [8] = target: T2, GIP receptor (UniProt P48546 22-466); assay: cell-based or functional assay
# T2 sequence (looked up): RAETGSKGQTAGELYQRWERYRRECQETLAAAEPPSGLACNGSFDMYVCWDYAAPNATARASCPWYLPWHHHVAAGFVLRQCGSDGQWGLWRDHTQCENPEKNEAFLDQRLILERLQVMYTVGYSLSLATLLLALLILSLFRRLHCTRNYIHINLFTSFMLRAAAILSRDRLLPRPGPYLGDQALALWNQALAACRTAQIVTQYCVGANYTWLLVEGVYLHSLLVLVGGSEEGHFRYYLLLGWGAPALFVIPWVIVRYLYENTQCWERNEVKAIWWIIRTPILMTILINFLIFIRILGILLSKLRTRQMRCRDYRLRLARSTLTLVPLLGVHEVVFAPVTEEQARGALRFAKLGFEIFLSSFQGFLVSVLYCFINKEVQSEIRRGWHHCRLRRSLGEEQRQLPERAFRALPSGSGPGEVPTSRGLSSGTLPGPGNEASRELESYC
# Chain of glucagon receptor (P47871 26-477 limits assumed): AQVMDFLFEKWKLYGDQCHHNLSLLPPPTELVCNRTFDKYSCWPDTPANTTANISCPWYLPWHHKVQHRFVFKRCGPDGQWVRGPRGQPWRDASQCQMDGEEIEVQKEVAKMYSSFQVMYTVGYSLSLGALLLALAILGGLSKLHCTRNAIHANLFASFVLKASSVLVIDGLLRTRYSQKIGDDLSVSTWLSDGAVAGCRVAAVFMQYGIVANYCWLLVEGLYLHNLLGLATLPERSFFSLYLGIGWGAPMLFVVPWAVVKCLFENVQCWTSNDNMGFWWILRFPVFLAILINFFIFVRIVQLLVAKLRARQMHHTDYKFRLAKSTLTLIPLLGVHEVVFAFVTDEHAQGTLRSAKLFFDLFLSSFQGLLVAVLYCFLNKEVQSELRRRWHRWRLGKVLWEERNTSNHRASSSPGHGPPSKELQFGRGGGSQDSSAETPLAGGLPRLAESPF
Molecule,half-life [1] [h],half-life [3] [h],"EC50-GLP, relative activity to GLP-1 standard [7] [%]","EC50-GIP, relative activity to GIP standard [8] [%]",further results
CCCCCCCCCCCCCCCCCCCC(=O)NCCCC[C@@H](N)C(=O)N(C)CC(=O)Nc1ccc(C[C@H](NC(=O)[C@H](CC(=O)O)NC(=O)[C@H](CO)NC(=O)[C@@H](NC(=O)[C@H](Cc2ccccc2)NC(=O)[C@@H](NC(=O)CNC(=O)[C@H](CCC(=O)O)NC(=O)C(C)(C)NC(=O)[C@@H](N)Cc2ccccc2)[C@@H](C)O)[C@@H](C)O)C(=O)N[C@@H](CO)C(=O)N[C@H](C(=O)N[C@@H](Cc2ccc(O)cc2)C(=O)N[C@@H](CC(C)C)C(=O)N[C@@H](CC(=O)O)C(=O)N[C@@H](CCCCN)C(=O)N[C@@H](CCC(N)=O)C(=O)N[C@@H](C)C(=O)N[C@@H](C)C(=O)NC(C)(C)C(=O)N[C@@H](CCC(=O)O)C(=O)N[C@@H](Cc2ccccc2)C(=O)N[C@H](C(=O)N[C@@H](CC(N)=O)C(=O)N[C@@H](Cc2c[nH]c3ccccc23)C(=O)N[C@@H](CC(C)C)C(=O)N[C@@H](CC(C)C)C(=O)N[C@@H](C)C(=O)NCC(=O)NCC(=O)N2CCC[C@H]2C(=O)N[C@@H](CO)C(=O)N[C@@H](CO)C(=O)NCC(=O)N[C@@H](C)C(=O)N2CCC[C@H]2C(=O)N2CCC[C@H]2C(=O)N2CCC[C@H]2C(=O)N[C@@H](CO)C(N)=O)C(C)C)[C@@H](C)CC)cc1 (H-F[Aib]EGTFTSD[Phe(4-NH2)]([Sar-d(εLys)-Arachidoyl])SIYLDKQAA[Aib]EFVNWLLAGGPSSGAPPPS-NH2; N-terminus and C-terminus assumed),~24,,,,Relative activity to GLP-1 standard ([2]; 0 d): 30.9%; Restored (activity relative to parent peptide) ([2]; 0 d): Restored 36%; Change of activity over the time points in plasma ([2]; 0 to 5 d): Activity Restored; Relative activity to GLP-1 standard ([2]; 1 d): 37.8%; Restored (activity relative to parent peptide) ([2]; 1 d): Restored 45%; Relative activity to GLP-1 standard ([2]; 5 d): 96.9%; Restored (activity relative to parent peptide) ([2]; 5 d): Restored 133%
CCCCCCCCCCCCCCCCCC(=O)NCCCC[C@@H](N)C(=O)N(C)CC(=O)NCCCC[C@H](NC(=O)[C@H](CC(=O)O)NC(=O)[C@H](CO)NC(=O)[C@@H](NC(=O)[C@H](Cc1ccccc1)NC(=O)[C@@H](NC(=O)CNC(=O)[C@H](CCC(=O)O)NC(=O)C(C)(C)NC(=O)[C@@H](N)Cc1ccccc1)[C@@H](C)O)[C@@H](C)O)C(=O)N[C@@H](CO)C(=O)N[C@H](C(=O)N[C@@H](Cc1ccc(O)cc1)C(=O)N[C@@H](CC(C)C)C(=O)N[C@@H](CC(=O)O)C(=O)N[C@@H](CCCCN)C(=O)N[C@@H](CCC(N)=O)C(=O)N[C@@H](C)C(=O)N[C@@H](C)C(=O)NC(C)(C)C(=O)N[C@@H](CCC(=O)O)C(=O)N[C@@H](Cc1ccccc1)C(=O)N[C@H](C(=O)N[C@@H](CC(N)=O)C(=O)N[C@@H](Cc1c[nH]c2ccccc12)C(=O)N[C@@H](CC(C)C)C(=O)N[C@@H](CC(C)C)C(=O)N[C@@H](C)C(=O)NCC(=O)NCC(=O)N1CCC[C@H]1C(=O)N[C@@H](CO)C(=O)N[C@@H](CO)C(=O)NCC(=O)N[C@@H](C)C(=O)N1CCC[C@H]1C(=O)N1CCC[C@H]1C(=O)N1CCC[C@H]1C(=O)N[C@@H](CO)C(=O)O)C(C)C)[C@@H](C)CC [Peptide E],~168,~168,,,
CCCCCCCCCCCCCCCCCCCCCC(=O)NCCCC[C@@H](N)C(=O)N(C)CC(=O)NCCCC[C@H](NC(=O)[C@H](CO)NC(=O)[C@H](Cc1ccc(O)cc1)NC(=O)[C@H](CC(=O)O)NC(=O)[C@H](CO)NC(=O)[C@@H](NC(=O)[C@H](Cc1ccccc1)NC(=O)[C@@H](NC(=O)CNC(=O)[C@H](CCC(=O)O)NC(=O)C(C)(C)NC(=O)[C@@H](N)Cc1ccc(O)cc1)[C@@H](C)O)[C@@H](C)O)C(=O)N[C@@H](Cc1ccc(O)cc1)C(=O)N[C@@H](CC(C)C)C(=O)N[C@@H](CC(=O)O)C(=O)N[C@@H](CCCCN)C(=O)N[C@@H](CCC(N)=O)C(=O)N[C@@H](C)C(=O)N[C@@H](C)C(=O)NC(C)(C)C(=O)N[C@@H](CCC(=O)O)C(=O)N[C@@H](Cc1ccccc1)C(=O)N[C@H](C(=O)N[C@@H](CC(N)=O)C(=O)N[C@@H](Cc1c[nH]c2ccccc12)C(=O)N[C@@H](CC(C)C)C(=O)N[C@@H](CC(C)C)C(=O)N[C@@H](C)C(=O)NCC(=O)NCC(=O)N1CCC[C@H]1C(=O)N[C@@H](CO)C(=O)N[C@@H](CO)C(=O)NCC(=O)N[C@@H](C)C(=O)N1CCC[C@H]1C(=O)N1CCC[C@H]1C(=O)N1CCC[C@H]1C(=O)N[C@@H](CO)C(=O)O)C(C)C [Peptide F],,< 24,,,
CCCCCCCCCCCCCCCCCCCCCC(=O)NCCCC[C@@H](N)C(=O)N(C)CC(=O)NCCCC[C@H](NC(=O)[C@H](CC(=O)O)NC(=O)[C@H](CC(C)C)NC(=O)[C@H](Cc1ccc(O)cc1)NC(=O)[C@@H](NC(=O)[C@H](CO)NC(=O)[C@H](Cc1ccc(O)cc1)NC(=O)[C@H](CC(=O)O)NC(=O)[C@H](CO)NC(=O)[C@@H](NC(=O)[C@H](Cc1ccccc1)NC(=O)[C@@H](NC(=O)CNC(=O)[C@H](CCC(=O)O)NC(=O)C(C)(C)NC(=O)[C@@H](N)Cc1ccc(O)cc1)[C@@H](C)O)[C@@H](C)O)[C@@H](C)CC)C(=O)N[C@@H](CCC(N)=O)C(=O)N[C@@H](C)C(=O)N[C@@H](C)C(=O)NC(C)(C)C(=O)N[C@@H](CCC(=O)O)C(=O)N[C@@H](Cc1ccccc1)C(=O)N[C@H](C(=O)N[C@@H](CC(N)=O)C(=O)N[C@@H](Cc1c[nH]c2ccccc12)C(=O)N[C@@H](CC(C)C)C(=O)N[C@@H](CC(C)C)C(=O)N[C@@H](C)C(=O)NCC(=O)NCC(=O)N1CCC[C@H]1C(=O)N[C@@H](CO)C(=O)N[C@@H](CO)C(=O)NCC(=O)N[C@@H](C)C(=O)N1CCC[C@H]1C(=O)N1CCC[C@H]1C(=O)N1CCC[C@H]1C(=O)N[C@@H](CO)C(=O)O)C(C)C [Peptide G],> 168,> 168,,,
CCCCCCCCCCCCCCCCCCCCCC(=O)NCCCC[C@@H](N)C(=O)N(C)CC(=O)NCCCC[C@H](NC(=O)[C@H](CO)NC(=O)[C@@H]1CCCN1C(=O)[C@@H]1CCCN1C(=O)[C@@H]1CCCN1C(=O)[C@H](C)NC(=O)CNC(=O)[C@H](CO)NC(=O)[C@H](CO)NC(=O)[C@@H]1CCCN1C(=O)CNC(=O)CNC(=O)[C@H](C)NC(=O)[C@H](CC(C)C)NC(=O)[C@H](CC(C)C)NC(=O)[C@H](Cc1c[nH]c2ccccc12)NC(=O)[C@H](CC(N)=O)NC(=O)[C@@H](NC(=O)[C@H](Cc1ccccc1)NC(=O)[C@H](CCC(=O)O)NC(=O)C(C)(C)NC(=O)[C@H](C)NC(=O)[C@H](C)NC(=O)[C@H](CCC(N)=O)NC(=O)[C@H](CCCCN)NC(=O)[C@H](CC(=O)O)NC(=O)[C@H](CC(C)C)NC(=O)[C@H](Cc1ccc(O)cc1)NC(=O)[C@@H](NC(=O)[C@H](CO)NC(=O)[C@H](Cc1ccc(O)cc1)NC(=O)[C@H](CC(=O)O)NC(=O)[C@H](CO)NC(=O)[C@@H](NC(=O)[C@H](Cc1ccccc1)NC(=O)[C@@H](NC(=O)CNC(=O)[C@H](CCC(=O)O)NC(=O)C(C)(C)NC(=O)[C@@H](N)Cc1ccc(O)cc1)[C@@H](C)O)[C@@H](C)O)[C@@H](C)CC)C(C)C)C(=O)O [Peptide H],~120,~120,,,
"E9, E16K20(lactam) glucagon(6-39) Cex peptide (Table 1 peptide 3)",,,,,Glu IC50 [4]: 42 nM; GLP-1 EC50 [5]: 36 nM; Glucagon IC50 [6]: 42 nM
"[PLA6, E9, K12E16(Lactam)] glucagon(6-39) Cex peptide (Table 1 peptide 5)",,,,,Glu IC50 [4]: 72 nM; GLP-1 EC50 [5]: 6 nM; Glucagon IC50 [6]: 72 nM
Y[Aib]EGTFTSDYSK([Sar-dK-C22 acyl])YLDKQAA[Aib]EFVNWLLAGGPSSGAPPPS-NH2 [Peptide F of Example 8 with C22-acylated (d)Lysine-sarcosine dipeptide on Lysine at position 12],,,17.4,30.2,
Y[Aib]EGTFTSDYSIYLDK([Sar-dK-C22 acyl])QAA[Aib]EFVNWLLAGGPSSGAPPPS-NH2 [Peptide G with C22-acylated (d)Lysine-sarcosine dipeptide on Lysine at position 16],,,24.7,58.5,
Y[Aib]EGTFTSDYSIYLDKQAA[Aib]EFVNWLLAGGPSSGAPPPSK([Sar-dK-Docosanoyl])-NH2 [Peptide H with C22-acylated (d)Lysine-sarcosine dipeptide on Lysine at position 40],,,37.1,81.6,
